Measured values: PubChem BioAssay (NCI)
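Protocol summary: plate cells (96-well), add compound at 5 concentrations, incubate 48 h, interpolate endpoints linearly. At the GI50, growth is halved. Definition used: TGI = concentration required for complete inhibition of growth.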

Tests used:
Assay in all cases: inhibition of tumour cell growth, NCI panel, 48 h
786-0 renal = tested on: 786-0 renal
HT29 colon = tested on: HT29 colon
K-562 leukemia = tested on: K-562 leukemia
MDA-MB-435 = tested on: MDA-MB-435
MOLT-4 leukemia = tested on: MOLT-4 leukemia
OVCAR-4 ovarian = tested on: OVCAR-4 ovarian
SNB-75 CNS = tested on: SNB-75 CNS
SR leukemia = tested on: SR leukemia
SW-620 colon = tested on: SW-620 colon
UO-31 renal = tested on: UO-31 renal

CNCCOC(=O)/C=C1\CC[C@H]2[C@@H]([C@@H](O)C(=O)[C@@H]3[C@]2(C)CC[C@H](O)[C@]3(C)C(=O)OC)[C@H]1C
GI50 (786-0 renal): 0.226 µM
TGI (786-0 renal): 0.681 µM
GI50 (HT29 colon): 0.443 µM
TGI (HT29 colon): 1.58 µM
GI50 (K-562 leukemia): 0.412 µM
TGI (K-562 leukemia): 2.37 µM
GI50 (MDA-MB-435): 0.368 µM
TGI (MDA-MB-435): 1.45 µM
GI50 (MOLT-4 leukemia): 0.212 µM
TGI (MOLT-4 leukemia): 0.543 µM
GI50 (OVCAR-4 ovarian): 0.222 µM
TGI (OVCAR-4 ovarian): 0.484 µM
GI50 (SNB-75 CNS): 0.396 µM
TGI (SNB-75 CNS): 1.74 µM
GI50 (SR leukemia): 0.244 µM
TGI (SR leukemia): 0.626 µM
GI50 (SW-620 colon): 0.318 µM
TGI (SW-620 colon): 1.14 µM
GI50 (UO-31 renal): 0.297 µM
TGI (UO-31 renal): 1.1 µM

O=C(c1ccco1)c1c(C(F)(F)F)nc2ccc(Cl)cc2[n+]1[O-]
GI50 (786-0 renal): > 100 µM
TGI (786-0 renal): > 100 µM
GI50 (HT29 colon): > 100 µM
TGI (HT29 colon): > 100 µM
GI50 (K-562 leukemia): 33.2 µM
TGI (K-562 leukemia): > 100 µM
GI50 (MDA-MB-435): > 100 µM
TGI (MDA-MB-435): > 100 µM
GI50 (MOLT-4 leukemia): > 100 µM
TGI (MOLT-4 leukemia): > 100 µM
GI50 (OVCAR-4 ovarian): > 100 µM
TGI (OVCAR-4 ovarian): > 100 µM
GI50 (SNB-75 CNS): 54 µM
TGI (SNB-75 CNS): > 100 µM
GI50 (SR leukemia): 86.6 µM
TGI (SR leukemia): > 100 µM
GI50 (SW-620 colon): 13.4 µM
TGI (SW-620 colon): 29.6 µM
GI50 (UO-31 renal): > 100 µM
TGI (UO-31 renal): > 100 µM

Cc1nc(Nc2cccnc2)sc1C(=O)/C=C/c1ccc(F)cc1
GI50 (786-0 renal): 2.94 µM
TGI (786-0 renal): 19.4 µM
GI50 (HT29 colon): 2.76 µM
TGI (HT29 colon): 10.1 µM
GI50 (K-562 leukemia): 2.78 µM
TGI (K-562 leukemia): > 100 µM
GI50 (MDA-MB-435): 2.71 µM
TGI (MDA-MB-435): 11.2 µM
GI50 (MOLT-4 leukemia): 3.2 µM
TGI (MOLT-4 leukemia): > 100 µM
GI50 (OVCAR-4 ovarian): 4.29 µM
TGI (OVCAR-4 ovarian): > 100 µM
GI50 (SNB-75 CNS): 3.42 µM
TGI (SNB-75 CNS): 67.1 µM
GI50 (SR leukemia): 1.69 µM
TGI (SR leukemia): > 100 µM
GI50 (SW-620 colon): 2.46 µM
TGI (SW-620 colon): 6.46 µM
GI50 (UO-31 renal): 2.81 µM
TGI (UO-31 renal): 16.9 µM

N#C/C(=C\c1ccc2ccccc2c1)C(=O)c1ccccc1
TGI (786-0 renal): > 85.5 µM
TGI (HT29 colon): > 100 µM
TGI (K-562 leukemia): 99.2 µM
TGI (MDA-MB-435): 43.2 µM
TGI (MOLT-4 leukemia): 68.8 µM
TGI (OVCAR-4 ovarian): > 100 µM
TGI (SNB-75 CNS): > 100 µM
TGI (SR leukemia): > 100 µM
TGI (SW-620 colon): > 81.4 µM
TGI (UO-31 renal): > 100 µM

NC1CCN(Cc2ccccc2)CC1
GI50 (786-0 renal): > 100 µM
TGI (786-0 renal): > 100 µM
GI50 (HT29 colon): > 100 µM
TGI (HT29 colon): > 100 µM
GI50 (K-562 leukemia): > 100 µM
TGI (K-562 leukemia): > 100 µM
GI50 (MDA-MB-435): > 100 µM
TGI (MDA-MB-435): > 100 µM
GI50 (MOLT-4 leukemia): > 100 µM
TGI (MOLT-4 leukemia): > 100 µM
GI50 (OVCAR-4 ovarian): > 100 µM
TGI (OVCAR-4 ovarian): > 100 µM
GI50 (SNB-75 CNS): > 100 µM
TGI (SNB-75 CNS): > 100 µM
GI50 (SR leukemia): > 100 µM
TGI (SR leukemia): > 100 µM
GI50 (SW-620 colon): > 100 µM
TGI (SW-620 colon): > 100 µM
GI50 (UO-31 renal): > 100 µM
TGI (UO-31 renal): > 100 µM

COC(=O)c1c2c(c(C)[n+]([O-])c1C)C(=O)C=C(NCc1ccc(F)cc1)C2=O
GI50 (786-0 renal): 1.76 µM
TGI (786-0 renal): 4.39 µM
GI50 (HT29 colon): 0.369 µM
GI50 (K-562 leukemia): 0.251 µM
TGI (K-562 leukemia): 5.04 µM
GI50 (MDA-MB-435): 0.173 µM
TGI (MDA-MB-435): 0.339 µM
GI50 (MOLT-4 leukemia): 0.858 µM
TGI (MOLT-4 leukemia): 3.09 µM
GI50 (OVCAR-4 ovarian): 0.254 µM
TGI (OVCAR-4 ovarian): 1.1 µM
GI50 (SNB-75 CNS): 1.65 µM
TGI (SNB-75 CNS): 3.03 µM
GI50 (SR leukemia): 0.639 µM
TGI (SR leukemia): 9.92 µM
GI50 (SW-620 colon): 0.344 µM
TGI (SW-620 colon): 1.38 µM
GI50 (UO-31 renal): 1.24 µM
TGI (UO-31 renal): 2.53 µM

O=C(Nc1ccc(Br)cc1F)c1cc(Cl)ccc1O
GI50 (786-0 renal): 2.54 µM
TGI (786-0 renal): 7.62 µM
GI50 (HT29 colon): 3.09 µM
TGI (HT29 colon): 31.5 µM
GI50 (K-562 leukemia): 0.489 µM
TGI (K-562 leukemia): > 50.7 µM
GI50 (MDA-MB-435): 0.71 µM
TGI (MDA-MB-435): 5.88 µM
GI50 (MOLT-4 leukemia): 1.76 µM
TGI (MOLT-4 leukemia): 5.11 µM
GI50 (OVCAR-4 ovarian): 0.509 µM
TGI (OVCAR-4 ovarian): > 100 µM
GI50 (SNB-75 CNS): 0.202 µM
TGI (SNB-75 CNS): 2.4 µM
GI50 (SR leukemia): 0.541 µM
TGI (SR leukemia): > 30.1 µM
GI50 (SW-620 colon): 1.05 µM
TGI (SW-620 colon): > 39.2 µM
GI50 (UO-31 renal): 0.207 µM
TGI (UO-31 renal): 2.36 µM

NC(N)=NCCCC(=O)O
TGI (786-0 renal): > 100 µM
TGI (HT29 colon): > 100 µM
TGI (K-562 leukemia): > 100 µM
TGI (MDA-MB-435): > 100 µM
TGI (MOLT-4 leukemia): > 100 µM
TGI (OVCAR-4 ovarian): > 100 µM
TGI (SNB-75 CNS): > 100 µM
TGI (SR leukemia): > 100 µM
TGI (SW-620 colon): > 100 µM
TGI (UO-31 renal): > 100 µM
